“And” between values parts separate entries of the source, which are not always exact repeats. Equal entries are not always repeated.
Target: Replicase polyprotein 1ab (Severe acute respiratory syndrome coronavirus 2, UniProt P0DTD1)
Experiment: Functional biochemical assay to identify treatments for viral infectious disease that targets SARS-COV-2 nsp3 macrodomain, whereby the mechanism of action displaces an ADP-Ribose modified peptide from the binding site. Utilizing a time-resolved fluorescence method to measure binding by reading the emitted fluorescence intensity in two wavelengths.

SMILES | IC50
c1nc(-c2ccc3c(c2)OCO3)c2cc[nH]c2n1 | > 99.5 µM
CCOC(=O)C1=C(Nc2cc(C)cc(C)c2)OCC1=O | > 99.5 µM
O=C(O)C[C@@H](NC(=O)c1ccnc2ncccc12)c1ccc(Br)cc1 | 87.9 µM and 92.8 µM
O=C(Nc1cccc2c(C(=O)N[C@@H](C(=O)O)c3ccc4c(c3)OCCO4)c[nH]c12)NC1CC1 | > 99.5 µM
Cc1ccc(C(=O)Nc2ncnc3[nH]c(C)c(C)c23)cn1 | > 99.5 µM
O=C(O)C[C@@H](NC(=O)c1ncnc2[nH]ccc12)c1ccc(NCC2C[C@@H](O)[C@@H](O)C2)cc1 (some centres undefined) | 25 µM and 27.5 µM
Cn1cc([C@@H](NC(=O)c2c[nH]c3c(NC(=O)NC4CC4)cccc23)C2CCC2)cn1 | > 99.5 µM
NS(=O)(=O)C[C@@H](NC(=O)c1ncnc2[nH]ccc12)c1ccc(Br)cc1 | > 99.5 µM
Cc1nnc(N[C@@H](c2ccc3c(c2)OCCO3)C(C)C)c2ccccc12 | > 99.5 µM
O=C(O)C[C@@H](NC(=O)c1cccc2cc[nH]c12)c1ccc(Br)cc1 | > 99.5 µM
O=C(NCc1nc(-c2cc3c(N4CCCC5(CC5)C4)ncnc3[nH]2)c[nH]1)c1ccc(F)nc1 | 24.8 µM and 20.8 µM
COCc1cc(CNc2ccc([C@@H](CC(=O)O)NC(=O)c3ncnc4[nH]ccc34)cc2)on1 | 10.6 µM and 12.4 µM
Cc1[nH]c2ncnc(NC(=O)c3ccc(Cl)nn3)c2c1C | > 99.5 µM
CC(C)n1nccc1S(=O)(=O)Nc1cnc2[nH]ccc2c1 | > 99.5 µM
Cc1[nH]c2ncnc(NC(=O)c3ccnnc3)c2c1C | > 99.5 µM
Cc1[nH]c2ncnc(NC(=O)c3cccc(Cl)n3)c2c1C | > 99.5 µM
Cc1[nH]c2ncnc(NC(=O)c3cccnn3)c2c1C | > 99.5 µM
Cc1[nH]c2ncnc(NC(=O)c3ccc(-n4cccn4)nc3)c2c1C | > 99.5 µM
COc1ccc2c(NC(=O)c3ccc(NC(=O)NC4CC4)cc3)c(C(=O)O)sc2c1 | > 99.5 µM
Cc1[nH]c2ncnc(NC(=O)Cc3ccc(Cl)nc3)c2c1C | > 99.5 µM
O=C(O)C[C@@H](CNC(=O)c1ncnc2[nH]ccc12)c1ccc(Cl)cc1 | 65.3 µM and 71.3 µM
Cc1[nH]c2ncnc(NC(=O)c3cncnc3)c2c1C | > 99.5 µM
COC(=O)C[C@@H](NC(=O)c1ncnc2[nH]ccc12)c1ccc(Br)cc1 | > 99.5 µM
COCc1cc(CNc2ccc([C@@H](CC(=O)O)NC(=O)c3c[nH]c4ncncc34)cc2)on1 | > 99.5 µM
Cc1[nH]c2ncnc(NC(=O)c3ccc(N(C)C)nc3)c2c1C | > 99.5 µM
Cc1cc2c(C(=O)N[C@@H](CC(=O)O)c3ccc(Br)cc3)cccc2[nH]1 | > 99.5 µM

SMILES | IC50
COc1ccc(S(=O)(=O)Nc2cnc3[nH]ccc3c2)cc1C(N)=O | > 99.5 µM
O=C(O)C[C@@H](NC(=O)c1ccnc2cn[nH]c12)c1ccc(Br)cc1 | 10.3 µM and 9.53 µM
O=C(O)C[C@@H](NC(=O)c1cccc2[nH]cnc12)c1ccc(Br)cc1 | 39.2 µM and 40.3 µM
CC(C)[C@@H](NC(=O)c1c[nH]c2c(NC(=O)NC3CC3)cccc12)C(F)F | > 99.5 µM
CN(C)c1ccc(C(=O)N[C@@H](CC(=O)O)c2ccc(Br)cc2)nc1 | > 99.5 µM
CC(C)[C@@H](Cc1ccc(F)cc1)NC(=O)c1ncnc2[nH]ccc12 | > 99.5 µM
O=C(O)C[C@@H](NC(=O)Cc1c[nH]c2ncccc12)c1ccc(Br)cc1 | > 99.5 µM
O=C(NCSC[C@@H](NC(=O)c1ncnc2[nH]ccc12)C(=O)O)c1ccccc1 | > 99.5 µM
Cc1[nH]c2ncnc(NC(=O)c3ccc(C(F)(F)F)nc3)c2c1C | > 99.5 µM
O=S(=O)(Cc1ccccc1F)Nc1cnc2[nH]ccc2c1 | > 99.5 µM
NC(=O)C[C@@H](NC(=O)c1ncnc2[nH]ccc12)C1CCCCC1 | > 99.5 µM
COc1ccc(C(=O)N2CCC(c3ccn4ncc(C(=O)N[C@@H]5CCC[C@@H]5C(=O)O)c4c3)CC2)cc1 | 20.2 µM and 24.6 µM
O=C(O)C[C@@H](NC(=O)c1ccnc(-n2cccc2)c1)c1ccc(Br)cc1 | > 99.5 µM
COc1cc(Nc2ccc([C@@H](CC(=O)O)NC(=O)c3ncnc4[nH]ccc34)cc2)n[nH]1 | 7.57 µM and 7.27 µM
Cc1[nH]c2ncnc(NC(=O)c3cccnc3)c2c1C | > 99.5 µM
CC(C)[C@@H](Nc1ncnc2c1ccn2C)c1ccc2c(c1)OCCO2 | > 99.5 µM
O=C(O)C[C@@H](NC(=O)c1nccc2[nH]ncc12)c1ccc(Br)cc1 | 24.7 µM and 24.2 µM
COC[C@@H]1C[C@@H]1CNc1ccc([C@@H](CC(=O)O)NC(=O)c2ncnc3[nH]ccc23)cc1 | 44.5 µM and 43.9 µM
COc1ccc(C(=O)Nc2ncnc3[nH]c(C)c(C)c23)cn1 | > 99.5 µM
Cc1[nH]c2ncnc(NC(=O)[C@@H]3Cc4ccccc4CO3)c2c1C | > 99.5 µM
CNS(=O)(=O)C[C@@H](NC(=O)c1ncnc2[nH]ccc12)c1ccc(Br)cc1 | > 99.5 µM
CC(C)[C@@H](CO)NC(=O)c1c[nH]c2c(NC(=O)NC3CC3)cccc12 | > 99.5 µM
Cc1[nH]c2ncnc(NC(=O)c3ccc(C#N)nc3)c2c1C | > 99.5 µM
Cc1[nH]c2ncnc(NC(=O)c3cnc(Cl)cn3)c2c1C | > 99.5 µM
Cc1cc(C)cc(CS(=O)(=O)Nc2cnc3[nH]ccc3c2)c1 | > 99.5 µM
CC(C)[C@@H](Nc1nc(C(F)F)nc2ccccc12)c1ccc2c(c1)OCCO2 | > 99.5 µM

SMILES | IC50
Cc1[nH]c2ncnc(NC(=O)c3ccc(-n4cnnc4)cc3)c2c1C | > 99.5 µM
Cc1[nH]c2ncnc(NC(=O)[C@@H](CC(F)F)C3CCC3)c2c1C | 8.19 µM and 8.22 µM
O=C(O)C[C@@H](NC(=O)c1cccc2[nH]ncc12)c1ccc(Br)cc1 | > 99.5 µM
Cc1[nH]c2ncnc(NC(=O)c3ncccc3Cl)c2c1C | 49.3 µM and 60.3 µM
Cn1c(C(=O)O)c(NC(=O)c2ccc(NC(=O)NC3CC3)cc2)c2ccccc21 | > 99.5 µM
O=C(Nc1ccc(C(=O)Nc2c(C(=O)O)sc3ncccc23)cc1)NC1CC1 | > 99.5 µM
O=C(Nc1cccc2c(C(=O)N[C@@H](c3ccccc3)C(F)F)c[nH]c12)NC1CC1 | > 99.5 µM
O=C(O)C[C@@H](NC(=O)c1c[nH]c2ncccc12)c1ccc(Br)cc1 | 27.4 µM and 29 µM
Cc1ccc(C(=O)N2CCC(c3ccn4ncc(C(=O)N[C@@H]5CCC[C@@H]5C(=O)O)c4c3)CC2)cc1 | 20.7 µM and 21.8 µM
O=C(Nc1ccc(C(=O)Nc2c(C(=O)O)sc3cnccc23)cc1)NC1CC1 | > 99.5 µM
NC(=O)[C@@H](NC(=O)c1ncnc2[nH]ccc12)c1ccc(F)cc1 | > 99.5 µM
COc1ccc([C@@H](CC(=O)O)NC(=O)c2ncnc3[nH]ccc23)cc1 | 2.07 µM and 2.12 µM and 3.68 µM
Cc1[nH]c2ncnc(NC(=O)[C@@H]3CCc4c(Cl)cccc43)c2c1C | > 99.5 µM
Cc1[nH]c2ncnc(NC(=O)c3cncc(Cl)n3)c2c1C | > 99.5 µM
O=C(N[C@@H](Cc1ccc(Br)cc1)C(=O)O)c1ncnc2[nH]ccc12 | > 99.5 µM
Cn1ncc2c(C(=O)N[C@@H](CC(=O)O)c3ccc(Br)cc3)ccnc21 | 70.2 µM and 81.7 µM
CC(=O)Nc1ccc(C(=O)Nc2ncnc3[nH]c(C)c(C)c23)cc1Cl | > 99.5 µM
O=C(Nc1cccc2c(C(=O)N[C@@H](CO)c3ccc4c(c3)OCCO4)c[nH]c12)NC1CC1 | > 99.5 µM
Cc1nc2c(C(=O)N[C@@H](CC(=O)O)c3ccc(Br)cc3)ccnc2[nH]1 | 20.6 µM and 20.2 µM
CC(C)[C@@H](NCc1ncc[nH]1)c1ccc2c(c1)OCCO2 | > 99.5 µM
O=C(O)C[C@@H](NC(=O)c1cncc2[nH]ccc12)c1ccc(Br)cc1 | 35.8 µM and 41.3 µM
C[C@@H](O)[C@@H](NC(=O)c1csc2c(NC(=O)NC3CC3)ncnc12)c1ccccc1F | > 99.5 µM
Cc1ncc(CCNC(=O)c2csc3c(NC(=O)NC4CC4)ncnc23)s1 | > 99.5 µM
COC[C@@H]1C[C@@H]1CNc1ccc([C@@H](CC(=O)O)NC(=O)c2c[nH]c3ncncc23)cc1 | > 99.5 µM
Cc1[nH]c2ncnc(NC(=O)c3ccc(S(C)(=O)=O)nc3)c2c1C | > 99.5 µM
O=C(Nc1ncnc2c(C(=O)N[C@@H](c3cccs3)C3CCCC3)csc12)NC1CC1 | > 99.5 µM

SMILES | IC50
CC(C)[C@@H](NCc1ccc(-n2cccn2)cc1)c1ccc2c(c1)OCCO2 | > 99.5 µM
Cc1[nH]c2ncnc(NC(=O)Cc3cn[nH]c3)c2c1C | 75.2 µM and 99 µM
O=C(Nc1ccc(C(=O)Nc2c(C(=O)O)[nH]c3ccccc23)cc1)NC1CC1 | > 99.5 µM
CC(C)[C@@H](Nc1ncnc2ncccc12)c1ccc2c(c1)OCCO2 | > 99.5 µM
NC(=O)C[C@H](NC(=O)c1ncnc2[nH]ccc12)c1ccc(Cl)cc1 | > 99.5 µM
Cc1[nH]c2ncnc(NC(=O)c3ccc(Cl)cn3)c2c1C | > 99.5 µM
CC(C)[C@@H](Nc1ncnc2ccccc12)c1ccc2c(c1)OCCO2 | 58.3 µM and 59.9 µM
CC(C)[C@@H](NCc1ccc(-n2ccnc2)cc1)c1ccc2c(c1)OCCO2 | > 99.5 µM
O=C(N[C@@H](CO)Cc1ccncc1)c1ncnc2[nH]ccc12 | > 99.5 µM
O=C(O)C[C@@H](NC(=O)c1cc2[nH]ccc2cn1)c1ccc(Br)cc1 | 6.82 µM and 7.54 µM
O=C(Nc1cccc2c(C(=O)N[C@@H]3c4ccccc4C[C@@H]3C(=O)O)c[nH]c12)NC1CC1 | 3.47 µM and 3.78 µM and 2.28 µM and 1.85 µM
c1nc(N2CCC[C@@H](Nc3ccc4c(c3)OCCO4)C2)c2cc[nH]c2n1 | > 99.5 µM
CC(C)[C@@H](NC(=O)c1ccnc2ccccc12)c1ccc2c(c1)OCCO2 | > 99.5 µM
O=C(O)C[C@@H](NC(=O)c1ccc2[nH]ccc2n1)c1ccc(Br)cc1 | 41.2 µM and 38.3 µM
CCc1coc(Nc2ccc([C@@H](CC(=O)O)NC(=O)c3ncnc4[nH]ccc34)cc2)n1 | 13.9 µM and 15.5 µM
Cc1[nH]c2ncnc(NC(=O)[C@@H]3CCCc4ncccc43)c2c1C | > 99.5 µM
O=C(N[C@@H](C(=O)O)c1ccc(Br)cc1)c1ncnc2[nH]ccc12 | 52.1 µM and 62.9 µM
O=C(O)C[C@@H](NC(=O)c1nccc2cc[nH]c12)c1ccc(Br)cc1 | 29.6 µM and 31.2 µM
Cn1ccc2c(C(=O)N[C@@H](CC(=O)O)c3ccc(Br)cc3)ccnc21 | 36.6 µM and 33.2 µM
Cc1[nH]c2ncnc(NC(=O)c3cc(Cl)ccn3)c2c1C | > 99.5 µM
C[C@@H](c1ccc(F)c(F)c1)N(C)C(=O)c1ncnc2[nH]ccc12 | > 99.5 µM
O=C(N[C@@H]1CCC[C@@H]1C(=O)O)c1cnn2ccc(C3CCN(C(=O)c4ccc(Cl)c(Cl)c4)CC3)cc12 | 38 µM and 40.8 µM
Cc1[nH]c2ncnc(NC(=O)C3(c4ccc(F)cc4)CCC3)c2c1C | 19.5 µM and 21.8 µM
CC(C)[C@@H](NCc1cccc2[nH]ccc12)c1ccc2c(c1)OCCO2 | > 99.5 µM
Cc1[nH]c2ncnc(C(=O)Nc3ccnc(Cl)c3)c2c1C | > 99.5 µM
O=C(O)C[C@@H](NC(=O)c1cnc2[nH]ccc2c1)c1ccc(Br)cc1 | > 99.5 µM

— ChEMBL document CHEMBL5441456, “ASAP - SARS-CoV-2 nsp3 macrodomain dose response” (2024)
